The source of these data is article PMC7756392, “Syntheses of Thailandepsin B Pseudo‐Natural Products: Access to New Highly Potent HDAC Inhibitors via Late‐Stage Modification” (Chemistry (Weinheim an Der Bergstrasse, Germany), 2020).

Experiment [1] has as its target T1, human recombinant HDAC1 (Homo sapiens, UniProt Q13547).
T1 construct: purchased BPS Bioscience 50051
In words: ZMAL trypsin assay, HDAC1. The experiment is classed as biochemical. The note with it: for inhibition at 10 µM: ZMAL trypsin assay. How it is done:
(§1) [28] Assays for HDAC1/6 were prepared according to: B. Heltweg , J. Trapp , M. Jung , Methods 2005, 36, 332–337; assays for HDAC8 were prepared according to: J. Senger , J. Melesina , M. Marek , C. Romier , I. Oehme , O. Witt , W. Sippl , M. Jung , J. Med. Chem. 2016, 59, 1545–1555. […]
(§2) hHDAC1/6: Activity assays were performed in OptiPlateTM-96 F black microplates (PerkinElmer). Commercial available enzymes (human recombinant HDAC1; BPS Bioscience, catalog no. 50051 and human recombinant HDAC6; BPS Bioscience, catalog no. 50006) were used. Total assay volume of 60 µL contains 42 µl of assay buffer (50 mM Tris -HCl, pH 8.0, 137 mM NaCl, 2.7 mM KCl, 1 mM MgCl2, 0.2 mM TCEP and 1 mg/mL bovine serum albumin), 10 µL of enzyme solution in assay buffer, 3 µL of increasing concentrations of inhibitors in DMSO and 5 μL of the fluorogenic substrate ZMAL (Z -(Ac)Lys-AMC) (126 μM). After incubation (90 min, 37 °C) 60 µL of stop solution, containing 5 μL Trichostatin A (TSA) (33 μM) and 10 μL trypsin (6 mg/mL) in trypsin buffer (Tris-HCl 50 mM, pH 8.0, NaCl 100 mM), were added. […]

Experiment [2] concerns the target T2, human recombinant HDAC6 (Homo sapiens, UniProt Q9UBN7).
T2 construct: purchased BPS Bioscience 50006
T2 sequence (Q9UBN7 1-1215): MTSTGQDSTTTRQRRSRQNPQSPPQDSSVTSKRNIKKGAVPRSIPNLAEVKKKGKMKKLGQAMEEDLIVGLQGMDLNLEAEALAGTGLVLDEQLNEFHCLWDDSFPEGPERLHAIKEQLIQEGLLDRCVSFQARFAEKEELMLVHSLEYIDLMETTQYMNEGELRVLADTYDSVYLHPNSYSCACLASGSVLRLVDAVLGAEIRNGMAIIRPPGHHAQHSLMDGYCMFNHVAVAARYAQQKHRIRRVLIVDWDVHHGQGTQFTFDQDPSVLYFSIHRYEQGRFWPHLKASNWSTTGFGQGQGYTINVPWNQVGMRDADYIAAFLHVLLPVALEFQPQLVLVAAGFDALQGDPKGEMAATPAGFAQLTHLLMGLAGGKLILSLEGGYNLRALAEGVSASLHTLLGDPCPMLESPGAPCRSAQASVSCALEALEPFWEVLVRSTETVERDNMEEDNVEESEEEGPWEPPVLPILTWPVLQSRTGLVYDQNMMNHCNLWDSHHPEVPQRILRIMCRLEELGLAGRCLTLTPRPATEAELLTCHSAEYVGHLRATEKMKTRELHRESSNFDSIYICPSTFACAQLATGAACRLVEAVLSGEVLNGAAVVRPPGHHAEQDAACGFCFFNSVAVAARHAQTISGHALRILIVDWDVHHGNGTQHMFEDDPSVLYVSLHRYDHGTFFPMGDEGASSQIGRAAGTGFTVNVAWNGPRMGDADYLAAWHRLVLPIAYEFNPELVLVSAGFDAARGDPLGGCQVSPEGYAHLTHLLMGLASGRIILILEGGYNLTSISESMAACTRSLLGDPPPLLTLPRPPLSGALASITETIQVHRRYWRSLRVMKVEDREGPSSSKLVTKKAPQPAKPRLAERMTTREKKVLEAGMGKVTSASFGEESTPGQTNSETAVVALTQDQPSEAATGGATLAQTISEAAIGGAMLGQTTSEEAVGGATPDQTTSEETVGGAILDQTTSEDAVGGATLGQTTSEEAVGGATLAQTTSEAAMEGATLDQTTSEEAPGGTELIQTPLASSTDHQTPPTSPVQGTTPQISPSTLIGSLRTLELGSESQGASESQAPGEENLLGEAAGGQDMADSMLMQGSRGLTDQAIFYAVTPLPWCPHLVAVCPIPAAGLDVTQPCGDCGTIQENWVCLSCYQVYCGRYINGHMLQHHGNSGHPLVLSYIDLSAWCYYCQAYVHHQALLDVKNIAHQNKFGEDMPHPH
In words: ZMAL trypsin assay, HDAC6. Format: biochemical. As to conditions: for inhibition at 10 µM: ZMAL trypsin assay. On the procedure: as §1, §2

T1 sequence (Q13547 whole entry): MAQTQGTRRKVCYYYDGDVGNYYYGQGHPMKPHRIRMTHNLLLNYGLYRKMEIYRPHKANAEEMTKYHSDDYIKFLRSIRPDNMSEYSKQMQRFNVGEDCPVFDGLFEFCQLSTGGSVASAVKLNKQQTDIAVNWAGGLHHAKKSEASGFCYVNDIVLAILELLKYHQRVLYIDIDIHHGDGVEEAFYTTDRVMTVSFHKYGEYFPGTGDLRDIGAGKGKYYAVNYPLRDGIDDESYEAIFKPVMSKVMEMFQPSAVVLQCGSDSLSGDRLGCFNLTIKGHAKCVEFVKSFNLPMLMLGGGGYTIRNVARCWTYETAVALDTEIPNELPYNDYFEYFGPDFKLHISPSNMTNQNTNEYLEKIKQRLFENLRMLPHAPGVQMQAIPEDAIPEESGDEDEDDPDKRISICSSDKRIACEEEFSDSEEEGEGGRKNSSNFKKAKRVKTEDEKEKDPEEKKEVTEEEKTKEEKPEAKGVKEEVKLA

For orientation: inhibition means the relative decrease from the control value, in per cent. Take `C=C[C@@H]1CC(=O)N[C@H](CCCC)C(=O)N[C@H](C)C(=O)N[C@H]([C@@H](C)CC)[C@@H](O)CC(=O)O1` [compound 28]: in experiment [1], the “HDAC1 inhibition (in words)” value is “did not show inhibition” and the inhibition at 10 µM is less than 5%. Besides, in experiment [2], the “HDAC6 inhibition (in words)” value is given as “did not show inhibition” and the inhibition at 10 µM is less than 5%.
`C=C[C@@H]1CC(=O)N[C@H](CCCC)C(=O)N[C@H](C)C(=O)N[C@H]([C@@H](C)CC)[C@@H](O[Si](C)(C)C(C)(C)C)CC(=O)O1` [compound 9]: in experiment [1], the “HDAC1 inhibition (in words)” value was “did not show inhibition” and the inhibition at 10 µM was less than 5%. In experiment [2], the “HDAC6 inhibition (in words)” value is recorded as “did not show inhibition” and the inhibition at 10 µM was less than 5%.
Turning to `CCCC[C@H]1NC(=O)C[C@@H](/C=C/CCC(=O)N(OC(=O)OC(C)(C)C)C(=O)OC(C)(C)C)OC(=O)C[C@H](O[Si](C)(C)C(C)(C)C)[C@@H]([C@@H](C)CC)NC(=O)[C@@H](C)NC1=O` [compound 35], in experiment [1], the “HDAC1 inhibition (in words)” value is on record as “not active” and the inhibition at 10 µM is less than 5%. Besides, in experiment [2], the “HDAC6 inhibition (in words)” value was “not active” and the inhibition at 10 µM was less than 5%.
